Data from the supplement of paper PMC10307832.

Columns and labels:
Assay in all cases: relative viability (nuclei count vs DMSO), 5 days (fraction); higher = more cells survive
[1] = compound: CN(C/C=C/C1=CC=C(C=C1)Cl)CC2=CC=CC=C2N(CCO)S(=O)(=O)C3=CC=C(C=C3)OC [KN-93]
Outline: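 Lung cancer cell lines received five library-drug doses (not always all listed) spaced by √10, pinned on vehicle-anchored 1536-well plates after an overnight stay at 37 °C. Five days later, with no medium change, nuclei were Hoechst-stained, imaged at 4× and counted with MetaXpress. Viability is treated-well nuclei relative to vehicle-well nuclei, as a median across plates. Passing plates had control CV below 25% and at least one doubling.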

[2] = compound: CN(C/C=C/C1=CC=C(C=C1)Cl)CC2=CC=CC=C2N(CCO)S(=O)(=O)C3=CC=C(C=C3)OC [KN-93] + N=C(N)NC(=N)NCCc1ccccc1 [Phenformin] (partner 250 µM)
Outline: (§1)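 Relative viability was taken as the ratio of nuclei in treated wells to nuclei in vehicle wells. Lung cancer cell lines in 1536-well plates received compounds by pin tool one day after seeding, either one drug alone or a fixed anchor-drug dose plus five library-drug doses (not always all listed) in √10 steps. Nuclei were counted on 4× images after 5 days of treatment, and values are medians of duplicate plates.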

[3] = compound: CN(C/C=C/C1=CC=C(C=C1)Cl)CC2=CC=CC=C2N(CCO)S(=O)(=O)C3=CC=C(C=C3)OC [KN-93] + COc1cc2c(Oc3ccc(NC(=O)C4(C(=O)Nc5ccc(F)cc5)CC4)cc3F)ccnc2cc1OCCCN1CCOCC1 [Foretinib] (partner 0.25 µM)
Outline: as §1

[4] = compound: CN(C/C=C/C1=CC=C(C=C1)Cl)CC2=CC=CC=C2N(CCO)S(=O)(=O)C3=CC=C(C=C3)OC [KN-93] + Cc1cc(Nc2cc(N3CCN(C)CC3)nc(Sc3ccc(NC(=O)C4CC4)cc3)n2)n[nH]1 [Tozasertib] (partner 0.1 µM)
Outline: as §1

[5] = compound: CN(C/C=C/C1=CC=C(C=C1)Cl)CC2=CC=CC=C2N(CCO)S(=O)(=O)C3=CC=C(C=C3)OC [KN-93] + CCNC(=O)c1noc(-c2cc(C(C)C)c(O)cc2O)c1-c1ccc(CN2CCOCC2)cc1 [Luminespib] (partner 0.01 µM)
Outline: as §1

[6] = compound: CN(C/C=C/C1=CC=C(C=C1)Cl)CC2=CC=CC=C2N(CCO)S(=O)(=O)C3=CC=C(C=C3)OC [KN-93] + COc1cccc2cc(-c3nc([C@H]4CC[C@H](C(=O)O)CC4)n4ncnc(N)c34)[nH]c12 [OSI-027] (partner 0.5 µM)
Outline: as §1

[7] = compound: CN(C/C=C/C1=CC=C(C=C1)Cl)CC2=CC=CC=C2N(CCO)S(=O)(=O)C3=CC=C(C=C3)OC [KN-93] + Cc1nc(Nc2ncc(C(=O)Nc3c(C)cccc3Cl)s2)cc(N2CCN(CCO)CC2)n1 [Dasatinib] (partner 0.075 µM)
Outline: as §1

[8] = compound: CN(C/C=C/C1=CC=C(C=C1)Cl)CC2=CC=CC=C2N(CCO)S(=O)(=O)C3=CC=C(C=C3)OC [KN-93] + NC(=O)Nc1cc(-c2cccc(F)c2)sc1C(=O)N[C@H]1CCCNC1 [AZD7762] (partner 0.2 µM)
Outline: as §1

[9] = compound: CN(C/C=C/C1=CC=C(C=C1)Cl)CC2=CC=CC=C2N(CCO)S(=O)(=O)C3=CC=C(C=C3)OC [KN-93] + CC(=O)Nc1cccc(-n2c(=O)n(C3CC3)c(=O)c3c(Nc4ccc(I)cc4F)n(C)c(=O)c(C)c32)c1 [Trametinib] (partner 0.02 µM)
Outline: as §1

[10] = compound: CN(C/C=C/C1=CC=C(C=C1)Cl)CC2=CC=CC=C2N(CCO)S(=O)(=O)C3=CC=C(C=C3)OC [KN-93] + O=C(c1cc(Cc2n[nH]c(=O)c3ccccc23)ccc1F)N1CCN(C(=O)C2CC2)CC1 [Olaparib] (partner 8 µM)
Outline: as §1

[11] = compound: CN(C/C=C/C1=CC=C(C=C1)Cl)CC2=CC=CC=C2N(CCO)S(=O)(=O)C3=CC=C(C=C3)OC [KN-93] + Nc1ncn([C@H]2C[C@H](O)[C@@H](CO)O2)c(=O)n1 [Decitabine] (partner 2 µM)
Outline: as §1

[12] = compound: CN(C/C=C/C1=CC=C(C=C1)Cl)CC2=CC=CC=C2N(CCO)S(=O)(=O)C3=CC=C(C=C3)OC [KN-93] + Nc1nc2[nH]cc(CCc3ccc(C(=O)N[C@@H](CCC(=O)O)C(=O)O)cc3)c2c(=O)[nH]1 [Pemetrexed] (partner 0.2 µM)
Outline: as §1

[13] = compound: CN(C/C=C/C1=CC=C(C=C1)Cl)CC2=CC=CC=C2N(CCO)S(=O)(=O)C3=CC=C(C=C3)OC [KN-93] + CC(=O)c1c(C)c2cnc(Nc3ccc(N4CCNCC4)cn3)nc2n(C2CCCC2)c1=O [Palbociclib] (partner 0.5 µM)
Outline: as §1

[14] = compound: CN(C/C=C/C1=CC=C(C=C1)Cl)CC2=CC=CC=C2N(CCO)S(=O)(=O)C3=CC=C(C=C3)OC [KN-93] + O=C(CCCCCCC(=O)Nc1ccccc1)NO [Vorinostat] (partner 1 µM)
Outline: as §1

NCI-H1623
relative viability ([1]; 0.08 µM): 0.95 | relative viability ([1]; 0.253 µM): 0.984 | relative viability ([1]; 2.53 µM): 0.956 | relative viability ([1]; 8 µM): 0.958 | relative viability ([2]; first compound 0.08 µM): 0.61 | relative viability ([2]; first compound 0.253 µM): 0.592 | relative viability ([2]; first compound 2.53 µM): 0.672 | relative viability ([2]; first compound 8 µM): 0.453 | relative viability ([3]; first compound 0.08 µM): 0.861 | relative viability ([3]; first compound 0.253 µM): 0.796 | relative viability ([3]; first compound 2.53 µM): 0.994 | relative viability ([3]; first compound 8 µM): 0.726 | relative viability ([4]; first compound 0.08 µM): 0.445 | relative viability ([4]; first compound 0.253 µM): 0.41 | relative viability ([4]; first compound 2.53 µM): 0.41 | relative viability ([4]; first compound 8 µM): 0.439 | relative viability ([5]; first compound 0.08 µM): 0.44 | relative viability ([5]; first compound 0.253 µM): 0.414 | relative viability ([5]; first compound 2.53 µM): 0.654 | relative viability ([5]; first compound 8 µM): 0.457 | relative viability ([6]; first compound 0.08 µM): 0.418 | relative viability ([6]; first compound 0.253 µM): 0.36 | relative viability ([6]; first compound 2.53 µM): 0.393 | relative viability ([6]; first compound 8 µM): 0.416 | relative viability ([7]; first compound 0.08 µM): 0.647 | relative viability ([7]; first compound 0.253 µM): 0.525 | relative viability ([7]; first compound 2.53 µM): 0.536 | relative viability ([7]; first compound 8 µM): 0.393

NCI-H1648
relative viability ([1]; 0.08 µM): 0.704 | relative viability ([1]; 0.253 µM): 0.792 | relative viability ([1]; 2.53 µM): 0.968 | relative viability ([1]; 8 µM): 0.526 | relative viability ([8]; first compound 0.08 µM): 0.647 | relative viability ([8]; first compound 0.253 µM): 0.727 | relative viability ([8]; first compound 2.53 µM): 0.82 | relative viability ([8]; first compound 8 µM): 0.663 | relative viability ([4]; first compound 0.08 µM): 0.426 | relative viability ([4]; first compound 0.253 µM): 0.378 | relative viability ([4]; first compound 2.53 µM): 0.389 | relative viability ([4]; first compound 8 µM): 0.331 | relative viability ([9]; first compound 0.08 µM): 0.403 | relative viability ([9]; first compound 0.253 µM): 0.445 | relative viability ([9]; first compound 2.53 µM): 0.381 | relative viability ([9]; first compound 8 µM): 0.407 | relative viability ([10]; first compound 0.08 µM): 0.56 | relative viability ([10]; first compound 0.253 µM): 0.724 | relative viability ([10]; first compound 2.53 µM): 0.568 | relative viability ([10]; first compound 8 µM): 0.711 | relative viability ([11]; first compound 0.08 µM): 0.459 | relative viability ([11]; first compound 0.253 µM): 0.45 | relative viability ([11]; first compound 2.53 µM): 0.557 | relative viability ([11]; first compound 8 µM): 0.34 | relative viability ([12]; first compound 0.08 µM): 0.717 | relative viability ([12]; first compound 0.253 µM): 0.874 | relative viability ([12]; first compound 2.53 µM): 0.788 | relative viability ([12]; first compound 8 µM): 0.716 | relative viability ([6]; first compound 0.08 µM): 0.263 | relative viability ([6]; first compound 0.253 µM): 0.254 | relative viability ([6]; first compound 2.53 µM): 0.229 | relative viability ([6]; first compound 8 µM): 0.202 | relative viability ([13]; first compound 0.08 µM): 0.251 | relative viability ([13]; first compound 0.253 µM): 0.259 | relative viability ([13]; first compound 2.53 µM): 0.295 | relative viability ([13]; first compound 8 µM): 0.291 | relative viability ([14]; first compound 0.08 µM): 0.485 | relative viability ([14]; first compound 0.253 µM): 0.423 | relative viability ([14]; first compound 2.53 µM): 0.322 | relative viability ([14]; first compound 8 µM): 0.807
